Test system: HCT-116 cells
Assay: Clonogenic survival assay with HCT-116 cells
Format: cell-based
Details: Homo sapiens, 24 h exposure, read-out: HCT-116 IC50 clonogenic 24 h
Protocol: This assay was used to determine the concentration of a compound that results irreversible loss of viability after a specified period of exposure.
Media (RPMI-1640, 10% FCS, pen/strep) was pre-warnied to 37° C. in a water bath. Cells were incubated and grown at 37° C., 5% CO2. Cells were recovered by trypsinization from sub-confluent plates and counted using a hemocytometer. 1×10^4 cells were plated in 25 mls of media in a 15 cm tissue culture dish. 14 plates were set up for each test compound, and were incubated overnight at 37° C. The compound was diluted into media at 7 concentrations and the media on the cells was replaced with that containing the test compound. Two plates were set up for each concentration of the compound to be tested, as well as two control plates without compound. […] Colonies were stained with crystal violet solution (0.4% crystal violet, 20 % ethanol) for 5 minutes, washed twice with distilled water, and counted.

## CC(C)N1CCN(Cc2cc(-c3[nH]nc4c3C(=O)c3c(NC(=O)NN5CCOCC5)cccc3-4)ccc2O)CC1.Cl.Cl.Cl.Cl [K]
  IC50: < 1000 nM

From patent US20050090471A1, “Inhibitors of cyclin-dependent kinases, compositions and uses related thereto” (GPC Biotech, Inc, priority 2001, published 2005)
